Measurements from patent US10239873B2, “7-azaindole or 4,7-diazaindole derivatives as IKKϵ epsilon and TBK1 inhibitor and pharmaceutical composition comprising same” (GREEN CROSS CORPORATION, priority 2015, dated 2019).

Biological target: T1, TBK1 (Homo sapiens, UniProt Q9UHD2)
T1 construct: purchased Promega (Invitrogen is also named in the same bracket) V4158; PR8031B; V3991 (not assigned to the two kinases)
T1 sequence (Q9UHD2 1-729): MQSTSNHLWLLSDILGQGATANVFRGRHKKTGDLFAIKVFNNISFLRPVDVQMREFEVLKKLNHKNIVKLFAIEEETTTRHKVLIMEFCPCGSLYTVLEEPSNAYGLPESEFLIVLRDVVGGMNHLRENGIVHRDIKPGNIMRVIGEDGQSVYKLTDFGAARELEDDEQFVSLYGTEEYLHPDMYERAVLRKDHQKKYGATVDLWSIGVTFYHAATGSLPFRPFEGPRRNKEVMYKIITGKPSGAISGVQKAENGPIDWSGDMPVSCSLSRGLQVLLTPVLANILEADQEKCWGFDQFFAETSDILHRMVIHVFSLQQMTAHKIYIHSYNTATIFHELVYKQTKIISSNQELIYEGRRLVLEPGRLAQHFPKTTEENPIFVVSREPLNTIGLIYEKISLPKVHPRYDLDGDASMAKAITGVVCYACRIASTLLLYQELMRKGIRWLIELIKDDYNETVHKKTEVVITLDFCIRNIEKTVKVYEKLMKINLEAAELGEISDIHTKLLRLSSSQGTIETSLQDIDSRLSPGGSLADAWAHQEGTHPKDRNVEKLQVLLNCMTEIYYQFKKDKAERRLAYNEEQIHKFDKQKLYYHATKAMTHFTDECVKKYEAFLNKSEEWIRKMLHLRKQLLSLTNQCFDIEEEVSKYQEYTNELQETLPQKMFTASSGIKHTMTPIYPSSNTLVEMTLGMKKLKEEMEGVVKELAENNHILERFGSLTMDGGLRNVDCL
Assay: ADP-Glo Kinase Assay, inhibition activity on TBK1
Assay type: biochemical
Method in brief: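 In 40 mM Tris pH 7.5 with 20 mM MgCl2 and 0.1 mg/mL BSA, each enzyme (IKKε or TBK1 kinase system) was run according to the manufacturer's protocol. ADP formed was detected by ADP-Glo luminescence.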

Row | SMILES | IC50
1 | CC1CN(C(=O)c2cccs2)CC=C1c1c[nH]c2ncc(-c3ccc(S(C)(=O)=O)cc3)cc12 (stereo not shown) [Example 214, (5-methyl-4-(5-(4-(methylsulfonyl)phenyl)-1H-pyrrolo[2,3-b]pyridin-3-yl)-5,6-dihydropyridin-1(2H)-yl)(thiophen-2-yl)methanone] | 78 nM
2 | CC1CN(C(=O)c2cccs2)CC=C1c1c[nH]c2ncc(-c3ccc(C(=O)N4CCOCC4)cc3)cc12 (stereo not shown) [Example 215, (4-(3-(3-methyl-1-(thiophene-2-carbonyl)-1,2,3,6-tetrahydropyridin-4-yl)-1H-pyrrolo[2,3-b]pyridin-5-yl)phenyl)(morpholino)methanone] | 12 nM
3 | CC1CN(C(=O)c2cccs2)CC=C1c1c[nH]c2ncc(-c3ccc(CN4CCOCC4)s3)cc12 (stereo not shown) [Example 216, (5-methyl-4-(5-(5-(morpholinomethyl)thiophen-2-yl)-1H-pyrrolo[2,3-b]pyridin-3-yl)-5,6-dihydropyridin-1(2H)-yl)(thiophen-2-yl)methanone] | 73 nM
4 | CN(C(=O)N1CC=C(c2c[nH]c3ncc(-c4cccc(S(C)(=O)=O)c4)cc23)CC1)C1CCCC1 [Example 217, N-cyclopentyl-N-methyl-4-(5-(3-(methylsulfonyl)phenyl)-1H-pyrrolo[2,3-b]pyridin-3-yl)-5,6-dihydropyridine-1(2H)-carboxamide] | 360 nM
5 | CN(C(=O)N1CC=C(c2c[nH]c3ncc(-c4cccc(S(N)(=O)=O)c4)cc23)CC1)C1CCCC1 [Example 218, N-cyclopentyl-N-methyl-4-(5-(3-sulfamoylphenyl)-1H-pyrrolo[2,3-b]pyridin-3-yl)-5,6-dihydropyridine-1(2H)-carboxamide] | > 10000 nM
6 | CN(C(=O)N1CC=C(c2c[nH]c3ncc(-c4ccc(S(N)(=O)=O)cc4)cc23)CC1)C1CCCC1 [Example 219, N-cyclopentyl-N-methyl-4-(5-(4-sulfamoylphenyl)-1H-pyrrolo[2,3-b]pyridin-3-yl)-5,6-dihydropyridine-1(2H)-carboxamide] | > 10000 nM
7 | COc1ccc(-c2cnc3[nH]cc(C4=CCN(C(=O)N(C)C5CCCC5)CC4)c3c2)cc1OC [Example 220, N-cyclopentyl-4-(5-(3,4-dimethoxyphenyl)-1H-pyrrolo[2,3-b]pyridin-3-yl)-N-methyl-5,6-dihydropyridine-1(2H)-carboxamide] | 1300 nM
8 | Cc1[nH]c2ncc(-c3ccc(S(N)(=O)=O)cc3)cc2c1C1=CCN(C(=O)NC2CCCC2)CC1 [Example 221, N-cyclopentyl-4-(2-methyl-5-(4-sulfamoylphenyl)-1H-pyrrolo[2,3-b]pyridin-3-yl)-5,6-dihydropyridine-1(2H)-carboxamide] | 2000 nM
9 | CNS(=O)(=O)c1ccc(-c2cnc3[nH]c(C)c(C4=CCN(C(=O)NC5CCCC5)CC4)c3c2)cc1 [Example 222, N-cyclopentyl-4-(2-methyl-5-(4-(N-methylsulfamoyl)phenyl)-1H-pyrrolo[2,3-b]pyridin-3-yl)-5,6-dihydropyridine-1(2H)-carboxamide] | 6800 nM
10 | Cc1[nH]c2ncc(-c3ccc(C(=O)N4CCOCC4)cc3)cc2c1C1=CCN(C(=O)NC2CCCC2)CC1 [Example 223, N-cyclopentyl-4-(2-methyl-5-(4-(morpholine-4-carbonyl)phenyl)-1H-pyrrolo[2,3-b]pyridin-3-yl)-5,6-dihydropyridine-1(2H)-carboxamide] | 1600 nM
11 | COc1ccc(-c2cc3c(C4=CCN(C(=O)OC(C)(C)C)CC4)c[nH]c3nc2N)cc1OC [Example 224, tert-butyl 4-(6-amino-5-(3,4-dimethoxyphenyl)-1H-pyrrolo[2,3-b]pyridin-3-yl)-5,6-dihydropyridine-1(2H)-carboxylate] | > 10000 nM
12 | CC(C)(C)OC(=O)N1CC=C(c2c[nH]c3nc(N)c(-c4ccc(CN5CCOCC5)s4)cc23)CC1 [Example 225, tert-butyl 4-(6-amino-5-(5-(morpholinomethyl)thiophen-2-yl)-1H-pyrrolo[2,3-b]pyridin-3-yl)-5,6-dihydropyridine-1(2H)-carboxylate] | > 10000 nM
13 | COc1ccc(-c2cc3c(C4=CCN(C(=O)NC5CCCC5)CC4)c[nH]c3nc2N)cc1OC [Example 226, 4-(6-amino-5-(3,4-dimethoxyphenyl)-1H-pyrrolo[2,3-b]pyridin-3-yl)-N-cyclopentyl-5,6-dihydropyridine-1(2H)-carboxamide] | > 10000 nM
14 | Nc1nc2[nH]cc(C3=CCN(C(=O)NC4CCCC4)CC3)c2cc1-c1ccc(CN2CCOCC2)s1 [Example 227, 4-(6-amino-5-(5-(morpholinomethyl)thiophen-2-yl)-1H-pyrrolo[2,3-b]pyridin-3-yl)-N-cyclopentyl-5,6-dihydropyridine-1(2H)-carboxamide] | 1500 nM
15 | O=C(NC1CCCC1)N1CC=C(c2c[nH]c3ncc(-c4ccc(CN5CCOCC5)s4)nc23)CC1 [Example 229, N-cyclopentyl-4-(2-(5-(morpholinomethyl)thiophen-2-yl)-5H-pyrrolo[2,3-b]pyrazin-7-yl)-5,6-dihydropyridine-1(2H)-carboxamide] | 66 nM
16 | COc1ccc(-c2cnc3[nH]cc(C4=CCN(C(=O)OC(C)(C)C)CC4)c3n2)cc1OC [Example 230, tert-butyl 4-(2-(3,4-dimethoxyphenyl)-5H-pyrrolo[2,3-b]pyrazin-7-yl)-5,6-dihydropyridine-1(2H)-carboxylate] | 320 nM
17 | O=C(c1cccs1)N1CC=C(c2c[nH]c3ncc(-c4ccc(CN5CCOCC5)s4)nc23)CC1 [Example 233, (4-(2-(5-(morpholinomethyl)thiophen-2-yl)-5H-pyrrolo[2,3-b]pyrazin-7-yl)-5,6-dihydropyridin-1(2H)-yl)(thiophen-2-yl)methanone] | 40 nM
18 | CC(C)(C)OC(=O)N1CC=C(c2c[nH]c3ncc(-c4ccc(CN5CCOCC5)s4)nc23)CC1 [Example 234, tert-butyl 4-(2-(5-(morpholinomethyl)thiophen-2-yl)-5H-pyrrolo[2,3-b]pyrazin-7-yl)-5,6-dihydropyridine-1(2H)-carboxylate] | 470 nM
19 | COc1ccc(-c2cnc3[nH]cc(C4CCCN(C(=O)OC(C)(C)C)C4)c3c2)cc1OC (stereo not shown) [Example 236, tert-butyl 3-(5-(3,4-dimethoxyphenyl)-1H-pyrrolo[2,3-b]pyridin-3-yl)piperidine-1-carboxylate] | > 10000 nM
20 | COc1ccc(-c2cnc3[nH]cc(C4=CCN(C(=O)OC(C)(C)C)CC4)c3c2)cc1OC [Example 239, tert-butyl 4-(5-(3,4-dimethoxyphenyl)-1H-pyrrolo[2,3-b]pyridin-3-yl)-5,6-dihydropyridine-1(2H)-carboxylate] | 300 nM
21 | CC(=O)Nc1cccc(-c2cnc3[nH]cc(C4=CCN(C(=O)OC(C)(C)C)CC4)c3c2)c1 [Example 240, tert-butyl 4-(5-(3-acetamidophenyl)-1H-pyrrolo[2,3-b]pyridin-3-yl)-5,6-dihydropyridine-1(2H)-carboxylate] | 200 nM
22 | CC(=O)Nc1ccc(-c2cnc3[nH]cc(C4=CCN(C(=O)OC(C)(C)C)CC4)c3c2)cc1 [Example 241, tert-butyl 4-(5-(4-acetamidophenyl)-1H-pyrrolo[2,3-b]pyridin-3-yl)-5,6-dihydropyridine-1(2H)-carboxylate] | 170 nM
23 | CCCOc1cccc(-c2cnc3[nH]cc(C4=CCN(C(=O)OC(C)(C)C)CC4)c3c2)c1 [Example 242, tert-butyl 4-(5-(3-propoxyphenyl)-1H-pyrrolo[2,3-b]pyridin-3-yl)-5,6-dihydropyridine-1(2H)-carboxylate] | 1300 nM
24 | CCCOc1ccc(-c2cnc3[nH]cc(C4=CCN(C(=O)OC(C)(C)C)CC4)c3c2)cc1 [Example 243, tert-butyl 4-(5-(4-propoxyphenyl)-1H-pyrrolo[2,3-b]pyridin-3-yl)-5,6-dihydropyridine-1(2H)-carboxylate] | 1700 nM
25 | COc1ccccc1-c1cnc2[nH]cc(C3=CCN(C(=O)OC(C)(C)C)CC3)c2c1 [Example 244, tert-butyl 4-(5-(2-methoxyphenyl)-1H-pyrrolo[2,3-b]pyridin-3-yl)-5,6-dihydropyridine-1(2H)-carboxylate] | 1800 nM
26 | COc1ccc(-c2cnc3[nH]cc(C4=CN(C(=O)OC(C)(C)C)CCC4)c3c2)cc1OC [Example 245, tert-butyl 5-(5-(3,4-dimethoxyphenyl)-1H-pyrrolo[2,3-b]pyridin-3-yl)-3,4-dihydropyridine-1(2H)-carboxylate] | 8800 nM
27 | COc1ccc(-c2cnc3[nH]cc(-c4ccc(CC(=O)NC5CCCC5)cc4)c3c2)cc1OC [Example 246, N-cyclopentyl-2-(4-(5-(3,4-dimethoxyphenyl)-1H-pyrrolo[2,3-b]pyridin-3-yl)phenyl)acetamide 2,2,2-trifluoroacetate] | 4100 nM
28 | O=C(O)Cc1ccc(-c2c[nH]c3ncc(-c4ccc(CN5CCOCC5)s4)cc23)cc1 [Example 247, 2-(4-(5-(5-(morpholinomethyl)thiophen-2-yl)-1H-pyrrolo[2,3-b]pyridin-3-yl)phenyl)acetic acid] | 1300 nM
